According to US20140093486A1, “METHOD FOR PREPARING INDUCED PLURIPOTENT STEM CELLS AND ITS APPLICATIONS” (Taipei Veterans General Hospital, priority 2012, published 2014):

How the values were obtained:
[1] = system: MEFs transfected with OSKM; assay: efficiency of iPSC generation from OSKM-transfected MEFs (ALP staining); type: cell-based, mouse; conditions: induced by OSKM, day 21 post-reprogramming
Excerpt: C57/B6 mice were used in this study and all procedures involving animals were approved by the Animals Committee of the Taipei Veterans General Hospital. Murine iPSCs were generated from mouse embryonic fibroblasts (MEFs) derived from 13.5-day-old embryos of C57/B6 mice. The iPSCs were reprogrammed by the transduction of retroviral vectors encoding four transcription factors (Oct4/Sox2/Klf4/c-Myc; OSKM), or three transcription factors (Oct4/Sox2/Klf4; OSK), as described previously (Li et al., 2011). Total of 12 clones (Re-1 to Re-12; OSKM) were selected and established. The clone of Re-7 iPSCs had been stably passed to more than 100 th passages with high pluripotency. Therefore, Re-7 iPSCs were selected and widely used in this study. Briefly, undifferentiated iPSCs were routinely cultured and expanded on mitotically-inactivated MEFs (50,000 cells/cm 2) in six-well culture plates (BD Technology) in the presence of 0.3% leukemia inhibitory factor in an iPSC medium consisting of Dulbecco's Modified Eagle's Medium (DMEM; Sigma) supplemented with 15% fetal bovine serum (FBS; Invitrogen), […] minimal essential medium (MEM) nonessential amino acids (Sigma), 0.55 mM 2-mercaptoethanol (Gibco), and antibiotics (Invitrogen). Every three to four days, colonies were detached with 0.2% collagenase IV (Invitrogen), dissociated into single cells with 0.025% trypsin (Sigma) and 0.1% chicken serum (Invitrogen) in PBS, and replated onto MEFs. For embryoid body (EB) formation, iPSCs were dissociated into a single cell suspension by 0.25% trypsin-EDTA and plated onto non-adherent culture dishes in DMEM with 15% FBS, […] MEM nonessential amino acids, 0.55 mM 2-mercaptoethanol, and antibiotics at a density of 2×10^6 cells/100 mm plate. After 4 days in floating culture, EBs were transferred onto gelatin-coated plates and maintained in the same medium for 24 h. EBs were then assigned for in vitro differentiation into tridermal lineages as previously described (Li et al., 2011). […]

hepatocytes = assay: viability of CCl4-injured hepatocytes (MTT assay); type: cell-based; conditions: 0.5 or 5 ng, CCl4 concentration of 1.0 to 2.5 mM, 24 h
Procedure: Mouse germline-competent iPS cells were provided by Kyoto University (Dr. Shinya Yamanaka) and RIKEN BRC, Japan (Takahashi K et al. (2006) Cell 126:663-676). IPS cells were cultured as previously described (Okita K et al. (2007) Nature 448: 313-317.9). […] For recombinant IP-10 (rIP-10, Peprotech, NC) study, hepatocytes were seeded on 24-well plates at the same density. The rIP-10 (0.5 ng or 5 ng) was given at 4 h post-injury. The viability of hepatocytes was evaluated at 24 h by methyl thiazol tetrazolium (MTT, Sigma) assay.

Mice (C57/B6) [2] = assay: CCl4-induced acute liver injury model; type: in vivo, mouse; conditions: CCl4-injured mice
Procedure: (§1) Mice (C57/B6, 8 to 10 weeks) were housed in cage and allowed free access to food and water. Mouse was given carbon tetrachloride (CCl4, Sigma) in mineral oil (0.35·μl/g, single dose, i.p.) to induce liver injury. At 4 h post-injury, mice were randomized to receive vehicle (PBS), iPS cells or iHL (2×10^6 cells/in 100 μl PBS) infusions via tail veins. For the time points study, mouse received blood withdrawal (˜100 μl) from facial veins at scheduled time for liver biochemistry. When mouse was sacrificed, blood was drawn from the heart and the liver was harvested and prepared for subsequent experiments including histochemistry, cytokine assay, protein and gene expression analysis. For neutralizing antibody study, mouse was given two doses (0.5 μg/dose, i.p.) of anti-IP-10 antibodies (Abcam, ab9938, Cambridge, UK) at 4 h before and 4 h after injury. For 72 h survival study, mice received repetitive CCl4 injury at 0, 24 and 48 h. […]
The paraffin sections of livers were stained by H.E. and photo-taken under microscopy at 40× magnification to evaluate the degree of injury. Necrotic area were determined by measuring five independent fields per liver using a computerized morphometry system (MicroCam, M&T OPTICS, Taiwan) and expressed as percentage of the filed area. […]

Mice (C57/B6) [3] = assay: 72-hour survival of repetitive CCl4-injured mice; type: in vivo, mouse; conditions: repetitive CCl4 at 0, 24 and 48 h; treatment once at 4 h
Procedure: as §1, with “h. The iPS cells (2×10^6 cells/in 100 μl PBS) or recombinant IP10 (rIP10, 0.5 ng) were given once at 4 h and the mortality rate of mice was observed until 72 h post-injury.” for “h.”
To evaluate the survival effects of iPS cells and IP-10, the 72-hour survival rates were evaluated in repetitive CCl4-injured mice, to which two additional doses of CCl4 (given at 24 and 48 hours) were given after the first dose. […]

Compound | efficiency of iPSC generation [1] | viability of injured hepatocytes (hepatocytes) | degree of liver damage (Mice (C57/B6) [2]) | 72-hour survival rates (Mice (C57/B6) [3]) [%]
CN(C)CC(=O)Nc1ccc2[nH]c(=O)c3ccccc3c2c1 [PJ-34] | reduction in the efficiency of iPSC generation | – | – | –
rIP-10: recombinant IP-10 (Peprotech) | – | sufficiently increased the viability | significantly reduced | 100
NC(=O)c1cccc(N)c1 [3-aminobenzamide] | reduction in the efficiency of iPSC generation | – | – | –
C[C@]1(c2nc3c(C(N)=O)cccc3[nH]2)CCCN1 [ABT-888] | reduction in the efficiency of iPSC generation | – | – | –
